The values below come from patent publication US20060003948A1, “Compositions that include a triterpene and a carrier” (priority 2004, published 2006).

The test system of one series is Epidermophyton. The series is described as follows: Agar Dilution Method 1, Epidermophyton. Type of series: cell-based. On the set-up: key: +++ = Maximum Fungal Growth; ++ = Moderate Fungal Growth; + = Minimum Fungal Growth; +/− = Very little Fungal Growth; − = No Fungal Growth. As to the method: (§1) Sabourand Dextrose Agar was prepared according the manufacturers instructions and 5 ml was dispensed in 100 X 25 mm tubes and autoclaved for 121° C. for 15 minutes. To each tube containing 5 ml of liquid agar at 45° C., different concentrations of test antifungal compound in DMSO was added, subsequently each was solidified in […], and inoculated with fungal cultures. After incubation for 10-12 days at 25° C. to 28° C., the growth of the fungus was recorded every second day. The Minimum Inhibitory Concentration (MIC) was determined by the tube containing the lowest concentration of test compound which inhibited fungal growth. See, Table 1.
(In agar dilution, organisms are placed on agar that contains the substance at set levels.)

A further series relates to M. audouinii. The series is described as follows: Agar Dilution Method 2, M. audouinii. Type of series: cell-based. The note with it: 12th day of inoculation. As to the method:
(§2) Sabourand Dextrose Agar was prepared according the manufacturers instructions and 5 ml was dispensed in 100×25 mm tubes and autoclaved for 121° C. for 15 minutes. To each tube containing 5 ml of liquid agar at 45° C., 4 mg/ml of test antifungal compound was added, subsequently each was solidified in […], and inoculated with fungal cultures. After incubation for 10-12 days at 25° C. to 28° C., the growth of the fungus was recorded every second day.

Series [1] has as its system Pityrosporum ovale. The series is described as follows: Agar Dilution Method 1, Pityrosporum ovale. The class given is cell-based. Set-up: key: +++ = Maximum Fungal Growth; ++ = Moderate Fungal Growth; + = Minimum Fungal Growth; +/− = Very little Fungal Growth; − = No Fungal Growth. As to the method:
as §1

The subject of the next series is M. canis. Kind of series: Agar Dilution Method 2, M. canis. The note with it: 12th day of inoculation. The class given is cell-based. As to the method:
as §2

For a further series, the system named is T. tonsurans. The series is described as follows: Agar Dilution Method 2, T. tonsurans. The class given is cell-based. The settings on record: 12th day of inoculation. As to the method: as §2
A further series has as its system Microsporum canis. The series is described as follows: Agar Dilution Method 1, Microsporum canis. The class given is cell-based. On the set-up: key: +++ = Maximum Fungal Growth; ++ = Moderate Fungal Growth; + = Minimum Fungal Growth; +/− = Very little Fungal Growth; − = No Fungal Growth. Here is the method: as §1
Series [2] concerns Pityrosporum ovale. The series is described as follows: Anti-Fungal Activity Against Pityrosporum ovale. The settings on record: 4 mg/ml of test compound; 37° C. for 18 to 24 hours. The class given is cell-based. Here is the method:
Betulin and its derivatives have low solubility in water, accordingly the stock solution of the test compounds were prepared in DMSO. The stock solutions for griseofulvin and nystatin were prepared in DMSO at a concentration of 10,000 μg/ml. The yeast Pityrosporum ovale (ATCC Rockville, Md.) was grown in Pityrosporum medium (ATCC Rockville, Md.) at 37° C. for 2-3 days. 5 ml of the medium was dispensed in 100×25 mm tubes and autoclaved at 121° C. for 15 minutes. To each tube at 45° C., 4 mg/ml of test compound was added and solidified in […], subsequently, each was inoculated with P. ovale and incubated at 37° C. for 18 to 24 hours.

The conditions of series [3]: cited from earlier work.

Consider `CC1(C)CCC23CCC4(C)C(CCC5C6(C)CCC(OC(=O)CCCC(=O)O)C(C)(C)C6CCC54C)C2C1OC3` (stereo not shown) [Allobetulin 3-glutarate], for which the “Fungal Growth Epidermophyton” value is on record as “++” in the series with Epidermophyton (12.5 μg/ml in DMSO), “+” in the series with Epidermophyton (25 μg/ml in DMSO), “+” in the series with Epidermophyton (50 μg/ml in DMSO) and “−” in the series with Epidermophyton (100 μg/ml in DMSO). Further, in the series with M. audouinii, the “Results using the Agar Dilution Method 2 in concentration, M. audouinii” value (“Results … M. audouinii” below) was found to be 9 µg/mL. Further, the “Fungal Growth Pityrosporum ovale” value is listed as “+++” with Pityrosporum ovale [1] (12.5 μg/ml in DMSO), “+++” in the series on Pityrosporum ovale [1] (25 μg/ml in DMSO), “++” in the series with Pityrosporum ovale [1] (50 μg/ml in DMSO) and “−” with Pityrosporum ovale [1] (100 μg/ml in DMSO). Moreover, in the series with M. canis, the “Results using the Agar Dilution Method 2 in concentration, M. canis” value (“Results … M. canis” below) is 25 µg/mL. Moreover, in the series with T. tonsurans, the “Results using the Agar Dilution Method 2 in concentration, T. tonsurans” value (“Results … T. tonsurans” below) stood at 25 µg/mL. For the same compound, the “Fungal Growth Microsporum canis” value in the series with Microsporum canis (12.5 μg/ml in DMSO) is given as “+/−”; in the series with Microsporum canis (25 μg/ml in DMSO), “+/−”; in the series with Microsporum canis (50 μg/ml in DMSO), “−”; in the series on Microsporum canis (100 μg/ml in DMSO), “−”.

With `C=C(C)[C@@H]1CC[C@]2(COC(=O)CCCC(=O)O)CC[C@]3(C)[C@H](CC[C@@H]4[C@@]5(C)CC[C@H](OC(=O)CCCC(=O)O)C(C)(C)[C@@H]5CC[C@]43C)[C@@H]12` [betulin 3,28-diglutarate], in the series with Pityrosporum ovale [2], the “growth of P. ovale” value is given as “inhibited the growth”.

With `CC1(C)CC[C@]23CC[C@]4(C)[C@H](CC[C@@H]5[C@@]6(C)CC[C@H](O)C(C)(C)[C@@H]6CC[C@]54C)[C@H]2[C@H]1OC3` [Allobetulin], the “Fungal Growth Epidermophyton” value with Epidermophyton (9 μg/ml in DMSO) was “++”; in the series on Epidermophyton (19 μg/ml in DMSO), “+”; in the series with Epidermophyton (38 μg/ml in DMSO), “+”; in the series with Epidermophyton (75 μg/ml in DMSO), “−”. For the same compound, the “growth of P. ovale” value with Pityrosporum ovale [2] is given as “inhibited the growth”. Also, the “Fungal Growth Pityrosporum ovale” value with Pityrosporum ovale [1] (9 μg/ml in DMSO) is recorded as “+++”; in the series on Pityrosporum ovale [1] (19 μg/ml in DMSO) it was “+++”; in the series with Pityrosporum ovale [1] (38 μg/ml in DMSO) it was “++”; with Pityrosporum ovale [1] (75 μg/ml in DMSO) it was “−”. Also, the “Fungal Growth Microsporum canis” value with Microsporum canis (9 μg/ml in DMSO) was “+++”; in the series with Microsporum canis (19 μg/ml in DMSO) it was “++”; with Microsporum canis (38 μg/ml in DMSO), “++”; in the series on Microsporum canis (75 μg/ml in DMSO), “−”.

For `C[C@@H]1[C@H](O)[C@@H](C)/C=C/C=C/CC/C=C/C=C/C=C/C=C/C(O[C@H]2O[C@H](C)[C@@H](O)[C@H](N)[C@@H]2O)CC2O[C@](O)(CC(O)C(O)CCC(O)CC(O)CC(O)CC(=O)O[C@H]1C)CC(O)C2C(=O)O` (stereo partly shown) [Nystatin, reference compound], the “Fungal Growth Epidermophyton” value in the series with Epidermophyton (125 μg/ml in DMSO) is “+/−”; in the series with Epidermophyton (250 μg/ml in DMSO), “−”; with Epidermophyton (500 μg/ml in DMSO), “−”; in the series with Epidermophyton (1000 μg/ml in DMSO) it was “−”. The “growth of P. ovale” value in the series on Pityrosporum ovale [2] is given as “inhibited”. In addition, in the series with M. audouinii, the “Results … M. audouinii” value is less than 125 µg/mL. For the same compound, the “Fungal Growth Pityrosporum ovale” value with Pityrosporum ovale [1] (125 μg/ml in DMSO) is “+”; in the series on Pityrosporum ovale [1] (250 μg/ml in DMSO), “+/−”; with Pityrosporum ovale [1] (500 μg/ml in DMSO), “−”; in the series on Pityrosporum ovale [1] (1000 μg/ml in DMSO), “−”. The “Results … M. canis” value in the series with M. canis was determined as 250 µg/mL. Moreover, the “Results … T. tonsurans” value with T. tonsurans came to 250 µg/mL. For the same compound, the “Fungal Growth Microsporum canis” value is on record as “+” with Microsporum canis (125 μg/ml in DMSO), “+/−” in the series with Microsporum canis (250 μg/ml in DMSO), “−” with Microsporum canis (500 μg/ml in DMSO) and “−” in the series on Microsporum canis (1000 μg/ml in DMSO).

In the case of `C=C(C)C1CCC2(COC(=O)CCCC(=O)O)CCC3(C)C(CCC4C5(C)CCC(O)C(C)(C)C5CCC43C)C12` (stereo not shown) [betulin 28-glutarate], the “growth of P. ovale” value with Pityrosporum ovale [2] was “inhibited the growth”.

As for `C=C(C)[C@@H]1CC[C@]2(CO)CC[C@]3(C)[C@H](CC[C@@H]4[C@@]5(C)CC[C@H](O)C(C)(C)[C@@H]5CC[C@]43C)[C@@H]12` [Betulin], the “Fungal Growth Epidermophyton” value is listed as “+” in the series on Epidermophyton (12.5 μg/ml in DMSO), “+” in the series with Epidermophyton (25 μg/ml in DMSO), “−” with Epidermophyton (50 μg/ml in DMSO) and “−” in the series on Epidermophyton (100 μg/ml in DMSO). In the series on M. audouinii, the “Results … M. audouinii” value was 25 µg/mL. The “Fungal Growth Pityrosporum ovale” value is “+++” with Pityrosporum ovale [1] (12.5 μg/ml in DMSO), “+++” in the series with Pityrosporum ovale [1] (25 μg/ml in DMSO), “++” in the series on Pityrosporum ovale [1] (50 μg/ml in DMSO) and “+/−” with Pityrosporum ovale [1] (100 μg/ml in DMSO). Further, in the series on M. canis, the “Results … M. canis” value turned out to be 50 µg/mL. Moreover, in series [3], the solubility in water result is given as “about 0.15 mg/l”. Besides, the “Fungal Growth Microsporum canis” value was “++” in the series with Microsporum canis (12.5 μg/ml in DMSO), “+” in the series on Microsporum canis (25 μg/ml in DMSO), “+/−” with Microsporum canis (50 μg/ml in DMSO) and “−” in the series with Microsporum canis (100 μg/ml in DMSO).

Consider `C=C(C)C1CCC2(COC(=O)c3ccccc3C(=O)O)CCC3(C)C(CCC4C5(C)CCC(O)C(C)(C)C5CCC43C)C12` (stereo not shown) [Betulin 28-phthalate], for which the “Fungal Growth Epidermophyton” value was “+++” in the series with Epidermophyton (12.5 μg/ml in DMSO), “++” with Epidermophyton (25 μg/ml in DMSO), “+” with Epidermophyton (50 μg/ml in DMSO) and “−” with Epidermophyton (100 μg/ml in DMSO). Moreover, the “Results … M. audouinii” value in the series on M. audouinii was 25 µg/mL. Besides, the “Fungal Growth Pityrosporum ovale” value with Pityrosporum ovale [1] (12.5 μg/ml in DMSO) is recorded as “+++”; in the series on Pityrosporum ovale [1] (25 μg/ml in DMSO), “+++”; in the series with Pityrosporum ovale [1] (50 μg/ml in DMSO), “++”; in the series on Pityrosporum ovale [1] (100 μg/ml in DMSO), “−”. The “Results … M. canis” value with M. canis was 50 µg/mL. Besides, the “Fungal Growth Microsporum canis” value in the series with Microsporum canis (12.5 μg/ml in DMSO) was “++”; in the series on Microsporum canis (25 μg/ml in DMSO), “+”; in the series with Microsporum canis (50 μg/ml in DMSO), “−”; with Microsporum canis (100 μg/ml in DMSO) it was “−”.

`COC1=CC(=O)C[C@@H](C)[C@]12Oc1c(Cl)c(OC)cc(OC)c1C2=O` [Griseofulvin, reference compound]: the “Fungal Growth Epidermophyton” value in the series on Epidermophyton (125 μg/ml in DMSO) is recorded as “++”; in the series on Epidermophyton (250 μg/ml in DMSO) it was “+”; in the series with Epidermophyton (500 μg/ml in DMSO), “−”; in the series with Epidermophyton (1000 μg/ml in DMSO) it was “−”. In addition, the “Results … M. audouinii” value in the series with M. audouinii was less than 125 µg/mL. The “Fungal Growth Pityrosporum ovale” value is reported as “+++” with Pityrosporum ovale [1] (125 μg/ml in DMSO), “+++” in the series with Pityrosporum ovale [1] (250 μg/ml in DMSO), “++” with Pityrosporum ovale [1] (500 μg/ml in DMSO) and “−” in the series on Pityrosporum ovale [1] (1000 μg/ml in DMSO). In the series with M. canis, the “Results … M. canis” value was determined as 250 µg/mL. Moreover, in the series on T. tonsurans, the “Results … T. tonsurans” value came out at 250 µg/mL. Moreover, the “Fungal Growth Microsporum canis” value with Microsporum canis (125 μg/ml in DMSO) is recorded as “+/−”; with Microsporum canis (250 μg/ml in DMSO) it was “+/−”; in the series with Microsporum canis (500 μg/ml in DMSO) it was “−”; with Microsporum canis (1000 μg/ml in DMSO) it was “−”.

On to allobetulin L-valine ester, for which the “growth of P. ovale” value in the series on Pityrosporum ovale [2] is on record as “inhibited the growth”.
